Measured values published in US10377770B2 (Novartis AG, priority 2015, dated 2019).

target: C-Raf FL (full length CRAF with Y340E and Y341E activating mutations, co-expressed with h14-3-3 zeta) (Homo sapiens (Human), UniProt P04049, Y340E/Y341E); assay: In vitro Raf activity determination, AlphaScreen p-MEK readout, c-Raf (C-Raf FL); type: biochemical; conditions: c-Raf approximately 4 nM, ATP 1 μM, pre-incubation 60 minutes, reaction 1 hour
In short: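 Phosphorylation of kinase-dead biotinylated MEK1 (~10 nM) by C-Raf FL (~4 nM) read by AlphaScreen luminescence with anti-phospho-MEK1/2 after EDTA stop. ATP was 1 μM, with a 1 h reaction at room temperature. Compounds were pre-incubated with enzyme and substrate for 60 min in Tris/MgCl2 buffer, pH 7.5.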

Chain of C-Raf FL (full length CRAF with Y340E and Y341E activating mutations, co-expressed with h14-3-3 zeta) (P04049 whole entry Y340E/Y341E): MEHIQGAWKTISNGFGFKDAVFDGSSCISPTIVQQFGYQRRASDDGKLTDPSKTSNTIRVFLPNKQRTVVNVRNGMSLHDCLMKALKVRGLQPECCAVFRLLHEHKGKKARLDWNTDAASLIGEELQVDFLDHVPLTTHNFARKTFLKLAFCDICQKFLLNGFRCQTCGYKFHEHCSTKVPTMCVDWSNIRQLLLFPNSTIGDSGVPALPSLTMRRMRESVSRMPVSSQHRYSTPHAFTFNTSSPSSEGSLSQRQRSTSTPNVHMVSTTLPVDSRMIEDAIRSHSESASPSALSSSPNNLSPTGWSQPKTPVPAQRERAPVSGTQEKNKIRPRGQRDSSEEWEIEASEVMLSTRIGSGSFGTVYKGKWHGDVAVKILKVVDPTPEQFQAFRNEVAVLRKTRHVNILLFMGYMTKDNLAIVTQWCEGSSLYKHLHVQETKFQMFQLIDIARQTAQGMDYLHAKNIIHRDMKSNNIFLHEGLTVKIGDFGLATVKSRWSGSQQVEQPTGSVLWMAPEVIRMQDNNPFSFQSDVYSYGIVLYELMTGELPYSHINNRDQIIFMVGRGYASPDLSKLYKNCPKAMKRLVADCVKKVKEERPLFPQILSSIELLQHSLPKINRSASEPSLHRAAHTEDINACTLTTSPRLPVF
Chain of C-Raf FL (full length CRAF with Y340E and Y341E activating mutations, co-expressed with h14-3-3 zeta) (P63104 whole entry partner): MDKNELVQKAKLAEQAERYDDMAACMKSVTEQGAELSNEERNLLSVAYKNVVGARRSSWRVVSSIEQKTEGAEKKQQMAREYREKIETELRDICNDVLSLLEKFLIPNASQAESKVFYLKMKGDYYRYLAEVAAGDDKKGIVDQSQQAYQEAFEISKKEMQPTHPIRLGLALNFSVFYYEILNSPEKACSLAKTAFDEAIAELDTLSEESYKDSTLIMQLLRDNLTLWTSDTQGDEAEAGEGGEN

Compound | IC50 [nM]
Cc1ccc(NC(=O)c2ccnc(C(F)(F)F)c2F)cc1-c1ccc2c(c1)N1CCOC[C@H]1[C@](F)(CO)C2 [Example 380, 3-fluoro-N-(3-((4aS,5S)-5-fluoro-5-(hydroxymethyl)-1,2,4,4a,5,6-hexahydro-[1,4)oxazino[4,3-a]quinolin-9-yl)-4-methylphenyl)-2-(trifluoromethyl)isonicotinamide] | 0.4
Cc1ccc(NC(=O)c2ccnc(C(F)(F)F)c2)cc1-c1ccc2c(c1)N1CCOC[C@H]1[C@](F)(CO)C2 [Example 381, N-(3-((4aS,5S)-5-fluoro-5-(hydroxymethyl)-1,2,4,4a,5,6-hexahydro-[1,4]oxazino[4,3-a]quinolin-9-yl)-4-methylphenyl)-2-(trifluoromethyl)isonicotinamide] | 0.3
Cc1ccc(NC(=O)c2ccnc(C(F)(F)F)c2)cc1-c1ccc2c(c1)N1CCOC[C@H]1[C@](F)(CO)C2 [Example 382, N-(3-((4aS,5S)-5-fluoro-5-(hydroxymethyl)-1,2,4,4a,5,6-hexahydro-[1,4]oxazino[4,3-a]quinolin-9-yl)-4-methylphenyl)-2-(trifluoromethyl)isonicotinamide] | 0.2
Cc1ncc(NC(=O)c2cccc(C(F)(F)F)c2)cc1-c1ccc2c(c1)N1CCOC[C@H]1[C@](F)(CO)C2 [Example 383, N-(5-((4aS,5S)-5-fluoro-5-(hydroxymethyl)-1,2,4,4a,5,6-hexahydro-[1,4]oxazino[4,3-a]quinolin-9-yl)-6-methylpyridin-3-yl)-3(trifluoromethyl)benzamide] | 1
Cc1ccc(NC(=O)c2cnnc(C(F)(F)F)c2)cc1-c1ccc2c(c1)N1CCOC[C@H]1[C@](F)(CO)C2 [Example 384, N-(3-((4aS,5S)-5-fluoro-5-(hydroxymethyl)-1,2,4,4a,5,6-hexahydro-[1,4]oxazino[4,3-a]quinolin-9-yl)-4-methylphenyl)-6-(trifluoromethyl)pyridazine-4-carboxamide] | 0.2
Cc1ccc(NC(=O)c2ccnc(C(F)(F)F)c2F)cc1-c1ccc2c(c1)N1CCOC[C@H]1[C@](F)(CO)C2 [Example 385, 3-fluoro-N-(3-((4aS,5S)-5-fluoro-5-(hydroxymethyl)-1,2,4,4a,5,6-hexahydro-[1,4]oxazino[4,3-a]quinolin-9-yl)-4-methylphenyl)-2-(trifluoromethyl)isonicotinamide] | 0.6
Cc1ccc(NC(=O)c2ccnc(C(C)(C)F)c2)cc1-c1ccc2c(c1)N1CCOC[C@H]1[C@](F)(CO)C2 [Example 386, N-(3-((4aS,5S)-5-fluoro-5-(hydroxymethyl)-1,2,4,4a,5,6-hexahydro-[1,4]oxazino[4,3-a]quinolin-9-yl)-4-methylphenyl)-2-(2-fluoropropan-2-yl)isonicotinamide] | 0.3
Cc1ccc(NC(=O)c2cncc(C(F)(F)F)c2)cc1-c1ccc2c(c1)N1CCOC[C@H]1[C@](F)(CO)C2 [Example 387, N-(3-((4aS,5S)-5-fluoro-5-(hydroxymethyl)-1,2,4,4a,5,6-hexahydro-[1,4]oxazino[4,3-a]quinolin-9-yl)-4-methylphenyl)-5-(trifluoromethyl)nicotinamide] | 0.3
Cc1ccc(NC(=O)c2cc(N)nc(C(F)(F)F)c2)cc1-c1ccc2c(c1)N1CCOC[C@H]1[C@](F)(CO)C2 [Example 390, 2-amino-N-(3-((4aS,5S)-5-fluoro-5-(hydroxymethyl)-1,2,4,4a,5,6-hexahydro-[1,4]oxazino[4,3-a]quinolin-9-yl)-4-methylphenyl)-6-(trifluoromethyl)isonicotinamide] | 1.7
Cc1ccc(NC(=O)c2cc(Cl)nc(C(F)(F)F)c2)cc1-c1ccc2c(c1)N1CCOC[C@H]1[C@](F)(CO)C2 [Example 391, 2-chloro-N-(3-((4aS,5S)-5-fluoro-5-(hydroxymethyl)-1,2,4,4a,5,6-hexahydro-[1,4]oxazino[4,3-a]quinolin-9-yl)-4-methylphenyl)-6-(trifluoromethyl)isonicotinamide] | 6.8
Cc1ccc(NC(=O)c2cc(C(C)(C)N)cc(C(F)(F)F)c2)cc1-c1ccc2c(c1)N1CCOC[C@H]1[C@](F)(CO)C2 [Example 392, 3-(2-aminopropan-2-yl)-N-(3-((4aS,5S)-5-fluoro-5-(hydroxymethyl)-1,2,4,4a.5,6-hexahydro-[1,4]oxazino[4,3-a]quinolin-9-yl)-4-methylphenyl)-5-(trifluoromethyl)benzamide] | 3.4
Cc1ccc(NC(=O)c2cncc(C(F)(F)F)c2)cc1-c1ccc2c(c1)N1CCOC[C@H]1[C@](F)(CO)C2 [Example 393, N-(3-((4aS,5S)-5-fluoro-5-(hydroxymethyl)-1,2,4,4a,5,6-hexahydro-[1,4]oxazino[4,3-a]quinolin-9-yl)-4-methylphenyl)-5-(trifluoromethyl)nicotinamide] | 0.1
Cc1ncc(NC(=O)c2cccc(C(F)(F)F)c2)cc1-c1ccc2c(c1)N1CCOC[C@H]1[C@@](F)(CO)C2 [Example 394, N-(5-((4aS,5R)-5-fluoro-5-(hydroxymethyl)-1,2,4,4a,5,6-hexahydro-[1,4]oxazino[4,3-a]quinolin-9-yl)-6-methylpyridin-3-yl)-3-(trifluoromethyl)benzamide] | 0.3
Cc1ccc(NC(=O)c2ccnc(C(F)(F)F)c2F)cc1-c1ccc2c(c1)N1CCOC[C@H]1[C@@](F)(CO)C2 [Example 395, 3-fluoro-N-(3-((4aS,5R)-5-fluoro-5-(hydroxymethyl)-1,2,4,4a,5,6-hexahydro-[1,4]oxazino[4,3-a]quinolin-9-yl)-4-methylphenyl)-2-(trifluoromethyl)isonicotinamide] | 0.2
Cc1ccc(NC(=O)c2ccnc(C(F)(F)F)c2)cc1-c1ccc2c(c1)N1CCOC[C@H]1[C@@](F)(CO)C2 [Example 396, N-(3-((4aS,5R)-5-fluoro-5-(hydroxymethyl)-1,2,4,4a,5,6-hexahydro-[1,4]oxazino[4,3-a]quinolin-9-yl)-4-methylphenyl)-2-(trifluoromethyl)isonicotinamide] | 0.2
Cc1ccc(NC(=O)c2ccnc(C(F)(F)F)c2)cc1-c1ccc2c(c1)N1CCOC[C@@H]1[C@](F)(CO)C2 [Example 399, N-(3-((4aR,5S)-5-fluoro-5-(hydroxymethyl)-1,2,4,4a,5,6-hexahydro-[1,4]oxazino[4,3-a]quinolin-9-yl)-4-methylphenyl)-2-(trifluoromethyl)isonicotinamide] | 0.3
Cc1ccc(NC(=O)c2ccnc(C(C)(C)F)c2)cc1-c1ccc2c(c1)N1CCOC[C@@H]1[C@](F)(CO)C2 [Example 400, N-(3-((4aR,5S)-5-fluoro-5-(hydroxymethyl)-1,2,4,4a,5,6-hexahydro-[1,4]oxazino[4,3-a]quinolin-9-yl)-4-methylphenyl)-2-(2-fluoropropan-2-yl)isonicotinamide] | 0.1
Cc1ccc(NC(=O)c2ccnc(C(C)(C)C#N)c2)cc1-c1ccc2c(c1)N1CCOC[C@@H]1[C@](F)(CO)C2 [Example 401, 2-(2-cyanopropan-2-yl)-N-(3-((4aR,5S)-5-fluoro-5-(hydroxymethyl)-1,2,4,4a,5,6-hexahydro-[1,4]oxazino[4,3-a]quinolin-9-yl)-4-methylphenyl)isonicotinamide] | 0.3
Cc1ccc(NC(=O)c2cnnc(C(F)(F)F)c2)cc1-c1ccc2c(c1)N1CCOC[C@@H]1[C@](F)(CO)C2 [Example 403, N-(3-((4aR,5S)-5-fluoro-5-(hydroxymethyl)-1,2,4,4a,5,6-hexahydro-[1,4]oxazino[4,3-a]quinolin-9-yl)-4-methylphenyl)-6-(trifluoromethyl)pyridazine-4-carboxamide] | 0.1
Cc1ncc(NC(=O)c2cccc(C(F)(F)F)c2)cc1-c1ccc2c(c1)N1CCOC[C@@H]1[C@@](CO)(CF)C2 [Example 406, N-(5-((4aS,5S)-5-(fluoromethyl)-5-(hydroxymethyl)-1,2,4,4a,5,6-hexahydro-[1,4]oxazino[4,3-a]quinolin-9-yl)-6-methylpyridin-3-yl)-3-(trifluoromethyl)benzamide] | 0.4
Cc1ccc(NC(=O)c2ccnc(C(C)(F)F)c2)cc1-c1ccc2c(c1)N1CCOC[C@@H]1[C@@](CO)(CF)C2 [Example 407, 2-(1,1-difluoroethyl)-N-(3-((4aS,5S)-5-(fluoromethyl)-5-(hydroxymethyl)-1,2,4,4a,5,6-hexahydro-[1,4]oxazino[4,3-a]quinolin-9-yl)-4-methylphenyl)isonicotinamide] | 0.1
Cc1ccc(NC(=O)c2ccnc(C(F)(F)F)c2)cc1-c1ccc2c(c1)N1CCOC[C@H]1[C@](CO)(CF)C2 [Example 408, N-(3-((4aR,5R)-5-(fluoromethyl)-5-(hydroxymethyl)-1,2,4,4a,5,6-hexahydro-[1,4]oxazino[4,3-a]quinolin-9-yl)-4-methylphenyl)-2-(trifluoromethyl)isonicotinamide] | 0.7
Cc1ncc(NC(=O)c2cccc(C(F)(F)F)c2)cc1-c1ccc2c(c1)N1CCOC[C@H]1[C@](CO)(CF)C2 [Example 409, N-(5-((4aR,5R)-5-(fluoromethyl)-5-(hydroxymethyl)-1,2,4,4a,5,6-hexahydro-[1,4]oxazino[4,3-a]quinolin-9-yl)-6-methylpyridin-3-yl)-3-(trifluoromethyl)benzamide] | 0.4
Cc1ccc(NC(=O)c2ccnc(C(C)(F)F)c2)cc1-c1ccc2c(c1)N1CCOC[C@H]1[C@](CO)(CF)C2 [Example 410, 2-(1,1-difluoroethyl)-N-(3-((4aR,5R)-5-(fluoromethyl)-5-(hydroxymethyl)-1,2,4,4a,5,6-hexahydro-[1,4]oxazino[4,3-a]quinolin-9-yl)-4-methylphenyl)isonicotinamide] | 0.5
Cc1ccc(NC(=O)c2ccnc(C(C)(F)F)c2)cc1-c1cc2n(c(=O)c1)CC[C@H]1COCCN21 [Example 411, (S)-2-(1,1-difluoroethyl)-N-(4-methyl-3-(8-oxo-1,2,4,4a,5,6-hexahydro-8H-pyrido[2′,1′:2,3]pyrimido[6,1-c][1,4]oxazin-10-yl)phenyl)isonicotinamide] | 0.2
